Measured values reported in publication PMC9457941, “Synthesis and Kinase Inhibitory Potencies of Pyrazolo[3,4-g]isoquinolines” (Molecules, 2022).

How the values were obtained:
[1] = target: T1, Haspin-kd (human, kinase domain, amino acids 470–798) (Homo sapiens, UniProt Q8TF76); assay: ADP-Glo kinase inhibition assay, Haspin; assay type: biochemical; conditions: for IC50: 10 μM ATP, duplicate; for remaining activity at 1 µM: read-out: Haspin % residual activity at 1 μM; for remaining activity at 10 µM: read-out: Haspin % residual activity at 10 μM
T1 construct: Haspin-kd (human, kinase domain, amino acids 470–798, recombinant, expressed in bacteria); host or cells: bacteria
T1 sequence (Q8TF76 470-798): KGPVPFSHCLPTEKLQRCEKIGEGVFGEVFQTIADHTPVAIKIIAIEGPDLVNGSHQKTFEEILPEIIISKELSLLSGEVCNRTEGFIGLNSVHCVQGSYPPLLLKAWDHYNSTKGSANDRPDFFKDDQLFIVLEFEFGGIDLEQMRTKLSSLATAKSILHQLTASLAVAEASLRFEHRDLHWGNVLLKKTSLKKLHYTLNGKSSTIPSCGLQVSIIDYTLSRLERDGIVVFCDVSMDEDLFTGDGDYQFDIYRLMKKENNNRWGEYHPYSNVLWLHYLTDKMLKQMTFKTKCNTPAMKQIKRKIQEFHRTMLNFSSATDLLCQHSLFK
Protocol: (§1) Kinase enzymatic activities were assayed in 384 well plates using the ADP-GloTM assay kit (Promega, Madison, WI, USA) according to the manufacturer’s guidance. Briefly, the reactions were carried out in a final volume of 6 μL for 30 min at 30 °C in an appropriate kinase buffer (10 mM MgCl2, 1 mM EGTA, 1 mM DTT, 25 mM Tris-HCl pH 7.5, 50 μg/mL heparin), with either protein or peptide as substrate in the presence of 10 μM ATP (40 mM Tris pH 7.5, 20 mM MgCl2 and 0.1 mg/mL of BSA). Afterward, 6 μL of ADP-GloTM Kinase Reagent was added to stop the kinase reaction. After an incubation time of 50 min at room temperature (RT), 12 μL of Kinase Detection Reagent was added for 1 h at RT. The transmitted signal was measured using the Envision (Perkin Elmer, Waltham, MA, USA) microplate luminometer and expressed in relative light unit (RLU). In order to determine the half maximal inhibitory concentration (IC50), the assays were performed in duplicate in the absence or presence of increasing doses of the tested compounds. GraphPad Prism6 software (GraphPad Software, San Diego, CA, USA) was used to fit dose–response curves and to determine the IC50 values. Kinase activities are expressed in the percentage of maximal activity, i.e., measured in the absence of an inhibitor. Peptide substrates were obtained from Proteogenix (Schiltigheim, France).

MmCLK1 = target: T2, MmCLK1 (Mus musculus, UniProt P22518); assay: ADP-Glo kinase inhibition assay, CLK1; assay type: biochemical; conditions: for IC50: 10 μM ATP, duplicate, read-out: CLK1 IC50; for remaining activity at 1 µM: read-out: CLK1 % residual activity at 1 μM; for remaining activity at 10 µM: read-out: CLK1 % residual activity at 10 μM
T2 construct: host or cells: bacteria
Protocol: as §1
(§2) The following protein kinases were analyzed in this study: CDK5/p25 (human, recombinant, expressed in bacteria) was assayed with 0.8 μg/μL of histone H1 as substrate; CDK9/CyclinT (human, recombinant, expressed by baculovirus in Sf9 insect cells) were assayed with 0.27 μg/μL of the following peptide: […], as substrate; CK1ε (human, recombinant, expressed by baculovirus in Sf9 insect cells) was assayed with 0.022 μg/μL of the following peptide: […]pAYSITA (“Sp” stands for phosphorylated serine) as CK1-specific substrate; GSK3β (human, recombinant, expressed by baculovirus in Sf9 insect cells) were assayed with 0.010 μg/μL of GS-1 peptide, a GSK-3-selective substrate ([…]pEDEEE); Haspin-kd (human, kinase domain, amino acids 470–798, recombinant, expressed in bacteria) was assayed with 0.007 μg/μL of histone H3 (1–21) peptide ([…]) as substrate; Pim-1 (human proto-oncogene, recombinant, expressed in bacteria) was assayed with 0.8 μg/μL of histone H1 as substrate; MmCLK1 (from Mus musculus, recombinant, expressed in bacteria) was assayed with 0.027 μg/μL of the following peptide: […] as substrate; RnDYRK1A-kd (Rattus norvegicus, amino acids 1–499 including the kinase domain, recombinant, expressed in bacteria, DNA vector kindly provided by Dr. W. Becker, Aachen, Germany) was assayed with 0.033 μg/μL of the following peptide: […] as substrate.

RnDYRK1A-kd = target: T3, RnDYRK1A-kd (Rattus norvegicus, UniProt Q63470); assay: ADP-Glo kinase inhibition assay, DYRK1A; assay type: biochemical; conditions: for IC50: 10 μM ATP, duplicate, read-out: DYRK1A IC50; for remaining activity at 1 µM: read-out: DYRK1A % residual activity at 1 μM; for remaining activity at 10 µM: read-out: DYRK1A % residual activity at 10 μM
T3 construct: RnDYRK1A-kd (Rattus norvegicus, amino acids 1–499 including the kinase domain, recombinant, expressed in bacteria); made in house; host or cells: bacteria
Protocol: as §1, §2

CDK9/CyclinT = target: T4, CDK9/CyclinT (Homo sapiens, UniProt P50750); assay: ADP-Glo kinase inhibition assay, CDK9/CyclinT; assay type: biochemical; conditions: for IC50: 10 μM ATP, duplicate; for remaining activity at 1 µM: read-out: CDK9 % residual activity at 1 μM; for remaining activity at 10 µM: read-out: CDK9 % residual activity at 10 μM
T4 construct: host or cells: Sf9 insect cells (baculovirus)
Protocol: as §1, §2

GSK3β = target: T5, GSK3β (Homo sapiens, UniProt P49841); assay: ADP-Glo kinase inhibition assay, GSK3β; assay type: biochemical; conditions: for IC50: 10 μM ATP, duplicate, read-out: GSK3 IC50; for remaining activity at 1 µM: read-out: GSK3 % residual activity at 1 μM; for remaining activity at 10 µM: read-out: GSK3 % residual activity at 10 μM
T5 construct: host or cells: Sf9 insect cells (baculovirus)
Protocol: as §1, §2

CK1ε = target: T6, CK1ε (Homo sapiens, UniProt P49674); assay: ADP-Glo kinase inhibition assay, CK1ε; assay type: biochemical; conditions: 10 μM ATP, duplicate; for remaining activity at 1 µM: 1 μM compound, read-out: CK1 % residual activity at 1 μM; for remaining activity at 10 µM: 10 μM compound, read-out: CK1 % residual activity at 10 μM
T6 construct: host or cells: Sf9 insect cells (baculovirus)
Protocol: as §1, §2

CDK5/p25 = target: T7, CDK5/p25 (Homo sapiens, UniProt Q00535); assay: ADP-Glo kinase inhibition assay, CDK5/p25; assay type: biochemical; conditions: for remaining activity at 1 µM: read-out: CDK5 % residual activity at 1 μM; for remaining activity at 10 µM: read-out: CDK5 % residual activity at 10 μM
T7 construct: host or cells: bacteria
Protocol: as §1, §2

Pim-1 = target: T8, Pim-1 (Homo sapiens, UniProt P11309); assay: ADP-Glo kinase inhibition assay, Pim-1; assay type: biochemical; conditions: 10 μM ATP, duplicate; for remaining activity at 1 µM: 1 μM compound, read-out: PIM1 % residual activity at 1 μM; for remaining activity at 10 µM: 10 μM compound, read-out: PIM1 % residual activity at 10 μM
T8 construct: host or cells: bacteria
Protocol: as §1, §2

[2] = test system: Haspin, CLK1, DYRK1A, CDK9/Cyclin T, GSK-3β, CK1ε, CDK5/p25 and Pim1; assay: Panel of eight protein kinases (ADP-Glo), statements across kinases; assay type: biochemical; conditions: 1 μM compound
Protocol: It should be noted that due to solubility issues, compound 1a could not be tested; only the corresponding methane sulfonate salt 1a’ was evaluated. The percentage of residual kinase activity was evaluated at 10 μM and 1 μM compound concentrations. […].
as §1, with “GraphPad Prism6 software (GraphPad Software, San Diego, CA, USA) was used to fit dose–response curves and to determine the IC50 values.” left out, “Peptide substrates were obtained from Proteogenix (Schiltigheim, France).” left out

panel of 486 kinases = conditions: cited from earlier work

T5 sequence (P49841 whole entry): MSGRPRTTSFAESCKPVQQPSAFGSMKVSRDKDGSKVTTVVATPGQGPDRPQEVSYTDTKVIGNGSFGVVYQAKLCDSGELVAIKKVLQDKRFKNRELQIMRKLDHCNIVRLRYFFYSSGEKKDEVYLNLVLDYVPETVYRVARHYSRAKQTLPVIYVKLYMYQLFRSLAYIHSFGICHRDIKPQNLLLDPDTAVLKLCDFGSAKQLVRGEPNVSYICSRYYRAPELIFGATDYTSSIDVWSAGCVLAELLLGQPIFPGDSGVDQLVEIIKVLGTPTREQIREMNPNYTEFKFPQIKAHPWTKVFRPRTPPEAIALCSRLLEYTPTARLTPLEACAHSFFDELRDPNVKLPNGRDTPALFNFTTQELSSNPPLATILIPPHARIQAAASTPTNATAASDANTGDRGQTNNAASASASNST
T6 sequence (P49674 whole entry): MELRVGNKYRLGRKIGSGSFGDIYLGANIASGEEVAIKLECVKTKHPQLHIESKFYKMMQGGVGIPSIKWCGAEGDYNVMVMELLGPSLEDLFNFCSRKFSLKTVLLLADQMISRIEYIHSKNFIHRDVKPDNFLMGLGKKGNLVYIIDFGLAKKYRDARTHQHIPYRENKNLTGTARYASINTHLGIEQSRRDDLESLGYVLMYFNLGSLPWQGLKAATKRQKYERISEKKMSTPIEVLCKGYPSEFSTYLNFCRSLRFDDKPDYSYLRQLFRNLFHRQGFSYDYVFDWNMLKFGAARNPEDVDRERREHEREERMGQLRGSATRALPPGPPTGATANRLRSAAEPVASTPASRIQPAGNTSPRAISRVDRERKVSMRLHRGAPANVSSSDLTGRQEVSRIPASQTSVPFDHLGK
T2 sequence (P22518 whole entry): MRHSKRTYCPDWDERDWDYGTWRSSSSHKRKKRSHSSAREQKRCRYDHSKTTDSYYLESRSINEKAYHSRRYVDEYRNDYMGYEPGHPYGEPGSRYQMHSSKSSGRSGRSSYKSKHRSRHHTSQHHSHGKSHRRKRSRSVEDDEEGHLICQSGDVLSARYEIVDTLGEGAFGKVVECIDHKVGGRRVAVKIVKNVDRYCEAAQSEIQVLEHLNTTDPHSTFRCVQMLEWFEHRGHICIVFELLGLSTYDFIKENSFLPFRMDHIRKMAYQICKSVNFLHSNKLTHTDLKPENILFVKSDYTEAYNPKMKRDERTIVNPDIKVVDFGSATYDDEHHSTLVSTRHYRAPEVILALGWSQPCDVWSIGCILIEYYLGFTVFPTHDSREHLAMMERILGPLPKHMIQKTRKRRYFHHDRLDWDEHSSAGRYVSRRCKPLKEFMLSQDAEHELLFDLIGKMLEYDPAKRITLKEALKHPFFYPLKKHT
T8 sequence (P11309 whole entry): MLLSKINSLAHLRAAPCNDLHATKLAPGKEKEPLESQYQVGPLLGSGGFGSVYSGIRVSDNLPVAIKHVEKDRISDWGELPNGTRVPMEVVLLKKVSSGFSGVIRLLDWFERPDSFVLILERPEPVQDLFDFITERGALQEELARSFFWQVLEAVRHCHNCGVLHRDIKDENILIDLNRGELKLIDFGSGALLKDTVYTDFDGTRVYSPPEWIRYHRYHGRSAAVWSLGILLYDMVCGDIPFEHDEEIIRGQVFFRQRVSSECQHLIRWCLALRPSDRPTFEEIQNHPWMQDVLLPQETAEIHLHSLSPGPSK
T7 sequence (Q00535 whole entry): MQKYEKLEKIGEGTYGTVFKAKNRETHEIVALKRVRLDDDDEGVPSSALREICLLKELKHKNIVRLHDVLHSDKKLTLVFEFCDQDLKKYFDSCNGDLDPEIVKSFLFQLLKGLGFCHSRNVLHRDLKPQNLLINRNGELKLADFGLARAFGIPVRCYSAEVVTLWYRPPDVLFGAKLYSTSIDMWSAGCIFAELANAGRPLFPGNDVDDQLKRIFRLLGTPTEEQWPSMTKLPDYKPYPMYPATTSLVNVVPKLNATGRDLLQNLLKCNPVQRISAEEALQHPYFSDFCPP
T7 sequence (Q15078 99-307, further chain): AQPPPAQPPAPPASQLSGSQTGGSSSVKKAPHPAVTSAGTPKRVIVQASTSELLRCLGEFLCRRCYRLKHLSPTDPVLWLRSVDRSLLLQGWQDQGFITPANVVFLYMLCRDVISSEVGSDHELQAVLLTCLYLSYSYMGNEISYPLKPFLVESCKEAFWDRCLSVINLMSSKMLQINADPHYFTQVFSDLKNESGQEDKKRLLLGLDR
T4 sequence (O60563 whole entry): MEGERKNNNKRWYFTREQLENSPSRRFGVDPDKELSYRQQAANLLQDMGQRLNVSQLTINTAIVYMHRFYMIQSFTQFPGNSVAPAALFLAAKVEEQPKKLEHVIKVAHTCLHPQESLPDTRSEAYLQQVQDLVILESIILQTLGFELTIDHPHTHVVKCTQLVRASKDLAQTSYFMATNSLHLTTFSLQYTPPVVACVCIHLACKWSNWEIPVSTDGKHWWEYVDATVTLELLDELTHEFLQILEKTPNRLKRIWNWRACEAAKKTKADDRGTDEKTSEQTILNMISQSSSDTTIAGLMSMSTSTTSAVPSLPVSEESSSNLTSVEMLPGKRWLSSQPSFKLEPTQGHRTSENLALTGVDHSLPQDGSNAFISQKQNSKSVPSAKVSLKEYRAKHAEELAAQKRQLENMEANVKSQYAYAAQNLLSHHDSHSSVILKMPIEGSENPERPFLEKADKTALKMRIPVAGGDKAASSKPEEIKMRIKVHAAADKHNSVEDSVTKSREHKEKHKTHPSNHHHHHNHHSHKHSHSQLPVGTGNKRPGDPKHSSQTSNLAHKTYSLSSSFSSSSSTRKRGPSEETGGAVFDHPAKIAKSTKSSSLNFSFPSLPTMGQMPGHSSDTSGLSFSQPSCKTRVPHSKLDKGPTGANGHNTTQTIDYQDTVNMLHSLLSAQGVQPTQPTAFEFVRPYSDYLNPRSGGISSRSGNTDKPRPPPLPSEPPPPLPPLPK
T4 sequence (P50750 whole entry): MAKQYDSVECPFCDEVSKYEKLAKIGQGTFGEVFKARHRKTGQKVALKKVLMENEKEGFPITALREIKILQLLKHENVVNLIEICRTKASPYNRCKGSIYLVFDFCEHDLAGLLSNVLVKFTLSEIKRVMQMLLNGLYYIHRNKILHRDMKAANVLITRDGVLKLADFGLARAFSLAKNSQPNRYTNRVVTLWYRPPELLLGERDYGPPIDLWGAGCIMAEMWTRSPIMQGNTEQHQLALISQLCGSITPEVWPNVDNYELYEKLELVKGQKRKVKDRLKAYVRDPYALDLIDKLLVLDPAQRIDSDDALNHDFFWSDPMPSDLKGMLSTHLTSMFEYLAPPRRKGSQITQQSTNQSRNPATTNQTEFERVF

SMILES | melting point [°C] | IC50 [1] [µM] | remaining activity at 1 µM [1] [%] | remaining activity at 10 µM [1] [%] | IC50 (MmCLK1) [µM] | remaining activity at 1 µM (MmCLK1) [%] | remaining activity at 10 µM (MmCLK1) [%] | remaining activity at 1 µM (RnDYRK1A-kd) [%] | remaining activity at 10 µM (RnDYRK1A-kd) [%] | IC50 (CDK9/CyclinT) [µM] | remaining activity at 1 µM (CDK9/CyclinT) [%] | remaining activity at 10 µM (CDK9/CyclinT) [%] | remaining activity at 1 µM (GSK3β) [%] | remaining activity at 10 µM (GSK3β) [%] | remaining activity at 1 µM (CK1ε) [%] | remaining activity at 10 µM (CK1ε) [%] | remaining activity at 1 µM (CDK5/p25) [%] | remaining activity at 10 µM (CDK5/p25) [%] | remaining activity at 1 µM (Pim-1) [%] | remaining activity at 10 µM (Pim-1) [%] | also measured
O=[N+]([O-])c1c2ccncc2cc2cn[nH]c12 | > 250 | – | – | – | – | – | – | – | – | – | – | – | – | – | – | – | – | – | – | – | –
CS(=O)(=O)O.O=[N+]([O-])c1c2ccncc2cc2cn[nH]c12 | > 250 | – | – | – | – | – | – | – | – | – | – | – | – | – | – | – | – | – | – | – | –
Nc1c2ccncc2cc2cn[nH]c12 [Compound 2a, 1-H-pyrazolo[3,4-g]isoquinolin-9-amine] | > 250 | 0.127 | 13 | 8 | 0.296 | 20 | 8 | 32 | 12 | 0.43 | 22 | 10 | 48 | 18 | 71 | 28 | 45 | 17 | 100 | 90 | Selectivity Index (SI) Haspin vs. CLK1 = CLK1 IC50/Haspin IC50 ([1]; Haspin vs. CLK1): 2.3; IC50 (RnDYRK1A-kd): 0.6 µM; IC50 (GSK3β): 0.411 µM; IC50 (CDK5/p25; 10 μM ATP, duplicate): 0.927 µM; kinases inhibited to more than 50% at 1 μM [2]: six out of eight
Cn1ncc2cc3cnccc3c(N)c21 [Compound 2b, 1-Methyl-1H-pyrazolo[3,4-g]isoquinolin-9-amine] | 174 to 175 | 0.112 | 10 | 14 | 0.548 | 36 | 8 | 18 | 5 | 0.578 | 39 | 15 | 68 | 44 | 77 | 42 | 72 | 60 | 91 | 71 | Selectivity Index (SI) Haspin vs. DYRK1A ([1]; Haspin vs. DYRK1A, which was more inhibited than CLK1): 2.4; IC50 (RnDYRK1A-kd): 0.273 µM
CCn1ncc2c(C3CC3)c3cnccc3c([N+](=O)[O-])c21 [Compound 3d, 4-Cyclopropyl-1-ethyl-9-nitro-1H-pyrazolo[3,4-g]isoquinoline] | 97 | 0.312 | 21 | 12 | 0.229 | 24 | 5 | 67 | 29 | 0.266 | 33 | 11 | 17 | 5 | 61 | 15 | 67 | 24 | 99 | 82 | IC50 (GSK3β): 0.226 µM
CCCCc1c2cnccc2c([N+](=O)[O-])c2c1cnn2CC [Compound 3e, 4-Butyl-1-ethyl-9-nitro-1H-pyrazolo[3,4-g]isoquinoline] | – | – | 78 | 19 | – | 58 | 16 | 72 | 16 | – | 33 | 10 | 39 | 10 | 100 | 60 | 82 | 57 | 78 | 35 | –
CCn1ncc2cc3cncc(Br)c3c([N+](=O)[O-])c21 [Compound 4, 8-Bromo-1-ethyl-9-nitro-1H-pyrazolo[3,4-g]isoquinoline] | – | – | 77 | 23 | – | 42 | 18 | 52 | 25 | – | 59 | 18 | 88 | 80 | 100 | 80 | 92 | 32 | 77 | 54 | inhibition at 1 µM ([1]; read-out: Haspin inhibition at 1 μM, 1 μM compound, % inhibition): 23%
COc1ncc2cc3cnccc3c([N+](=O)[O-])c2n1 [I] | – | – | – | – | – | – | – | – | – | – | – | – | – | – | – | – | – | – | – | – | kinases inhibited when tested on a large panel of 486 kinases (panel of 486 kinases): 12%
